Holding throughout (type): cell-based, mycobacteria of tuberculosis
The subject of assay [1] is Semiresistant (resistant to streptomycin, rifamycin and isoniazid). Kind of assay: Bacteriostatic activity on patient strains (Table 4). The note with it: taken from patients, Central SRI of Tuberculosis RAMS 1997.
Assay [2] has as its system Strain resistant to streptomycin and rifamycin. The note with it: taken from patients, Sverdlovsk Regional SRI of Phthisiopulmonology 1998.
In assay [3] the test system is Strain resistant to isoniazid. The note with it: taken from patients, Sverdlovsk Regional SRI of Phthisiopulmonology 1998.
For assay [4], the system named is Resistant to isoniazid. As to the kind of experiment: Bacteriostatic activity on patient strains (Table 4). The note with it: taken from patients, Central SRI of Tuberculosis RAMS 1997.
Assay [5] relates to Resistant to rifamycin. The assay is described as above. The note with it: taken from patients, Central SRI of Tuberculosis RAMS 1997.
Assay [6] concerns Resistant to streptomycin. The assay is described as above. The note with it: taken from patients, Central SRI of Tuberculosis RAMS 1997.

Turning to `NNC(=O)c1ccncc1` [Isoniazid, hydrazide of isonicotinic acid, reference compound], the Inhibiting level in assay [1] was 2.125 µg/mL; in assay [2], 0.1 µg/mL; in assay [3], 5.0 µg/mL; in assay [4] it was more than 100 µg/mL; in assay [5] it was 0.29 µg/mL; in assay [6], 0.29 µg/mL.
For the compound `[H]/N=C(/N)N[C@H]1[C@H](O)[C@@H](O)[C@H](O[C@@H]2O[C@@H](C)[C@](O)(C=O)[C@H]2O[C@@H]2O[C@@H](CO)[C@H](O)[C@@H](O)[C@@H]2NC)[C@@H](N/C(N)=N\[H])[C@@H]1O` [Streptomycin, reference compound], the Inhibiting level was 10.0 µg/mL in assay [2] and more than 50.0 µg/mL in assay [3].
In the same order, the values of `O=C(NN=Cc1ccccc1OCCCCOCCCCOc1ccccc1C=NNC(=O)c1cccnc1)c1cccnc1` [1,9-Bis(2-nicotinoyl hydrazonomethylphenoxy)-5-oxanonon] are 0.4 µg/mL and more than 5.0 µg/mL.
In the case of `O=C(NN=Cc1c(OCCOc2ccc3ccccc3c2C=NNC(=O)c2ccccc2)ccc2ccccc12)c1ccccc1` [1,2-Bis[2(benzoyl hydrazonomethylnaphthoxy-2)]-ethane], the Inhibiting level in assay [2] came to 0.4 µg/mL; in assay [3], 5.0 µg/mL.
On to `O=Cc1ccc(Cl)cc1OCCOc1cc(Cl)ccc1C=O` [1,2-Bis(2-formyl-5-chlorphenoxy)-ethane], for which the Inhibiting level is 0.4 µg/mL in assay [2] and 5.0 µg/mL in assay [3].
On to `COc1cc(C=NNC(=O)c2ccccc2)ccc1OCCOc1ccc(C=NNC(=O)c2ccccc2)cc1OC` [1,2-Bis(2-methoxy-4-benzoyl hydrazonomethylphenoxy)-ethane], for which the Inhibiting level in assay [2] was 0.8 µg/mL; in assay [3], more than 5.0 µg/mL.
As for `O=C(NN=Cc1ccccc1OCCOCCOc1ccccc1C=NNC(=O)c1ccncc1)c1ccncc1` [1,5-Bis(2-isonicotinoyl hydrazonomethylphenoxy)-3-oxapentane], the Inhibiting level is 1.57 µg/mL in assay [1], 18.80 µg/mL in assay [4], 0.20 µg/mL in assay [5] and 1.56 µg/mL in assay [6].
Consider `CO[C@H]1/C=C/O[C@@]2(C)Oc3c(C)c(O)c4c(O)c(cc(O)c4c3C2=O)NC(=O)/C(C)=C\C=C\[C@H](C)[C@H](O)[C@@H](C)[C@@H](O)[C@@H](C)[C@H](OC(C)=O)[C@@H]1C` [Rifamycin, reference compound], for which the Inhibiting level in assay [2] turned out to be 20.0 µg/mL.

The values above are taken from patent publication EP1081131A1 (priority 1998, dated 1999).
